According to patent publication US8795632B2, “Disease animal model for chronic pain” (Astellas Pharma Inc., priority 2008, dated 2014):

Experiments:
Sprague-Dawley rats [1] = test: Cold sensitivity (acetone method) after reserpine single administration; type: in vivo, rat; conditions: reserpine 3 mg/kg single s.c.
Experimental: Measurement of cold sensitivity was carried out in accordance with the method of Choi et al. (Choi et al., Pain, 59, 369-376, 1994). After adaptation of each rat to a wire mesh bottom cage for measurement, 50 μl of acetone was sprayed to the plantar surface of the right hind paw of the rat using a syringe for insulin injection. The number of reactions of the right hind paw (flinching, lifting and leg licking) occurred during 1 minute just after the spraying was measured and used as the index of cold sensitivity. At each point of time of the measurement, the acetone spraying was carried out 3 times at 5 minute intervals and the average was used as the measured vale. […]
Influences of the reserpine single administration upon the muscle pressure pain threshold value, skin pain sensation threshold value, cold sensitivity and heat sensitivity were examined in accordance with the following protocol. […] The muscle pressure pain threshold value, skin pain sensation threshold value, cold sensitivity and heat sensitivity before the reserpine treatment (base lines) were measured and then they were divided into a solvent (0.5% acetic acid aqueous solution) group and a reserpine (3 mg/kg) group (the number of animals per group was 6). […]
All of the measured values were expressed as average value±standard error. […]

Sprague-Dawley rats [2] = test: Muscle pressure pain threshold value after repeated administration of reserpine; type: in vivo, rat; conditions: for time after reserpine final administration until which muscle pressure pain threshold value was statistically significantly low vs solvent group: reserpine 1 mg/kg s.c. once a day for 3 days
Experimental: Measurement of muscle pressure pain threshold value was carried out in accordance with the method of Schafers et al. (Schafers M. et al., Pain, 104, 579-588, 2003). A pressure stimulus of gradually increasing to 250 g at the maximum was added to the rat right hind leg gastrocnemius muscle. […] The measurement was carried out 3 times at each point of time of the measurement, and the average was used as the measurement value. Measurement of the skin pain sensation threshold value was carried out in accordance with the method of Chaplan et al. (Chaplan et al., J. Neurosci. Methods, 53, 55-63, 1994). This was measured using a series of von Frey filaments having different diameters which may add a constant pressure. […] The von Frey filament was applied using the up and down method. That is, by firstly applying a filament of middle diameter, a filament having one rank smaller diameter was applied when the withdrawal reaction was observed or a filament having one rank larger diameter was applied when the withdrawal reaction was not observed. The skin pain sensation threshold value at each point of time of the measurement was calculated as a hind paw withdrawal reaction threshold value (g) using the calculation formula reported by Chaplan et al. (Chaplan et al., described above). Influences of reserpine upon the muscle pressure pain threshold value and skin pain sensation threshold value were examined by the following protocol. A total of 24 animals for each of male and female rats were used. After measuring muscle pressure pain threshold value and skin pain sensation threshold value before the reserpine treatment (base line), they were divided based on the reserpine administration doses into a solvent (0.5% acetic acid aqueous solution) group, a reserpine 0.1 mg/kg group, a 0.3 mg/kg group and a 1 mg/kg group (the number of animals per one group was 6). The solvent or reserpine was subcutaneously administered on the back of the rats of each group once a day for 3 days. All of the administration volume of the solvent or reserpine was set to 1 ml per 1 kg body weight of each animal. After final administration of the solvent or reserpine, the muscle pressure pain threshold value and skin pain sensation threshold value of each rat were measured 1, 3, 5, 7, 10, 14 and 21 days thereafter.
All of the measured values were expressed as average value±standard error. Statistical significance test of the measured values between the reserpine administration groups and the solvent administration group at each point of time was carried out by a two-way analysis of variance and the Bonferroni method. Probability value (P) of less than 5% was judged as statistically significant (P<0.05 was expressed as * in the graphs).

Question: What does the source list for `COC(=O)[C@H]1[C@H]2C[C@@H]3c4[nH]c5cc(OC)ccc5c4CCN3C[C@H]2C[C@@H](OC(=O)c2cc(OC)c(OC)c(OC)c2)[C@@H]1OC` [reserpine]?
Answer: cold sensitivity: number of reactions (Sprague-Dawley rats [1]; after 2, 3, 5, 7 and 10 days): significantly increased; cold sensitivity: number of reactions (Sprague-Dawley rats [1]; within 24 hours after administration): did not show significant increase; time after reserpine final administration until which muscle pressure pain threshold value was statistically significantly low vs solvent group (Sprague-Dawley rats [2]; female rats): 7 days; muscle pressure pain threshold value (Sprague-Dawley rats [2]; male and female rats, reserpine 0.1, 0.3, 1 mg/kg s.c. once a day for 3 days, two-way analysis of variance vs solvent): significantly reduced; time after reserpine final administration until which muscle pressure pain threshold value was statistically significantly low vs solvent group (Sprague-Dawley rats [2]; male rats): 10 days; muscle pressure pain threshold value (Sprague-Dawley rats [2]; reserpine 1 mg/kg group, s.c. once a day for 3 days): markedly reduced; duration of chronic muscle pain and chronic tactile allodynia after administration (Sprague-Dawley rats [2]; reserpine administered to a mammal (summary statement)): ≥ 1 week
